Assay results published in US8008232B2, “Pyrazolecarboxanilides, process for their preparation and compositions comprising them for controlling harmful fungi” (BASF Aktiengesellschaft, priority 2005, dated 2011).

system: Botrytis cinerea; test: Activity against gray mold on bell pepper leaves caused by Botrytis cinerea, protective application (also comparative experiment); type: in vivo; settings: 5 days, untreated 90
Description: The active compounds were prepared as a stock solution comprising 25 mg of active compound which was made up to 10 ml using a mixture of acetone and/or dimethyl sulfoxide and the emulsifier Uniperol® EL (wetting agent having an emulsifying and dispersing action based on ethoxylated alkylphenols) in a volume ratio of solvent/emulsifier of 99:1. The mixture was then made up to 100 ml with water. This stock solution was diluted with the solvent/emulsifier/water mixture described to give the desired concentration of active compounds.
Activity Against Gray Mold on Bell Pepper Leaves Caused by Botrytis cinerea, Protective Application
Bell pepper seedlings of the cultivar “Neusiedler Ideal Elite” were, after 2-3 leaves were well developed, sprayed to runoff point with an aqueous suspension having the concentration of active compounds stated below. The next day, the treated plants were inoculated with a spore suspension of Botrytis cinerea which comprised 1.7×10^6 spores/ml in a 2% strength aqueous biomalt solution. The test plants were then placed into a dark climatized chamber at 22-24° C. and high atmospheric humidity. After 5 days, the extent of the fungal infection on the leaves could be determined visually in %.
Comparative Experiment—Activity Against Gray Mold on Bell Pepper Leaves Caused by Botrytis cinerea, Protective Application
Compound No. 47 of Table 1 from EP-A 0 589 301 was compared to compounds 9.17 and 9.20 according to the invention from Table 9.

SMILES	Infection in % at 250 ppm at BOTRCI P1
Cc1nn(C)cc1C(=O)Nc1ccccc1-c1ccc(F)cc1F [9.20]	7%
Cc1nn(C)cc1C(=O)Nc1ccccc1-c1ccc(F)c(Cl)c1 [9.17]	5%
Cc1nn(C)cc1C(=O)Nc1ccccc1-c1ccc(F)cc1 [Comp. 47, reference compound]	60%
